In PubChem BioAssay (NCI):
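Protocol summary: plate cells (96-well), add compound at 5 concentrations, incubate 48 h, interpolate endpoints linearly. TGI is the concentration that stops growth completely.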 Where a SMILES comes first, the peptide text is derived from it. The star is where a group is joined. Cbz = O=C(OCc1ccccc1)*; OBn = c1ccc(CO*)cc1

Tests used:
Assay in all cases: NCI-60 cell line screen, 48 h
OVCAR-5 ovarian = test system: OVCAR-5 ovarian
EKVX NSCLC = test system: EKVX NSCLC
NCI/ADR-RES ovarian = test system: NCI/ADR-RES ovarian
UO-31 renal = test system: UO-31 renal
NCI-H23 lung = test system: NCI-H23 lung
HOP-62 NSCLC = test system: HOP-62 NSCLC
SK-OV-3 ovarian = test system: SK-OV-3 ovarian
M14 melanoma = test system: M14 melanoma
DU-145 prostate = test system: DU-145 prostate
SF-295 CNS = test system: SF-295 CNS
UACC-257 melanoma = test system: UACC-257 melanoma
HCT-116 colon = test system: HCT-116 colon
HS 578T breast = test system: HS 578T breast
HT29 colon = test system: HT29 colon
SN12C renal = test system: SN12C renal
CAKI-1 renal = test system: CAKI-1 renal
KM12 colon = test system: KM12 colon
MOLT-4 leukemia = test system: MOLT-4 leukemia
MCF7 breast = test system: MCF7 breast
HCC-2998 colon = test system: HCC-2998 colon

| SMILES | TGI (OVCAR-5 ovarian) [µM] | TGI (EKVX NSCLC) [µM] | TGI (NCI/ADR-RES ovarian) [µM] | TGI (UO-31 renal) [µM] | TGI (NCI-H23 lung) [µM] | TGI (HOP-62 NSCLC) [µM] | TGI (SK-OV-3 ovarian) [µM] | TGI (M14 melanoma) [µM] | TGI (DU-145 prostate) [µM] | TGI (SF-295 CNS) [µM] | TGI (UACC-257 melanoma) [µM] | TGI (HCT-116 colon) [µM] | TGI (HS 578T breast) [µM] | TGI (HT29 colon) [µM] | TGI (SN12C renal) [µM] | TGI (CAKI-1 renal) [µM] | TGI (KM12 colon) [µM] | TGI (MOLT-4 leukemia) [µM] | TGI (MCF7 breast) [µM] | TGI (HCC-2998 colon) [µM] |
| --- | --- | --- | --- | --- | --- | --- | --- | --- | --- | --- | --- | --- | --- | --- | --- | --- | --- | --- | --- | --- |
| NC1CC(=O)c2cc(Cl)sc21 (stereo not given) | > 100 | > 100 | > 100 | > 100 | > 100 | > 100 | > 100 | > 100 | > 100 | > 100 | > 100 | > 100 | > 100 | > 100 | > 100 | > 100 | > 100 |  |  |  |
| CC(C)OP(=O)(OC(C)C)C(C(C)C)N(C)/C(N)=N\C1=NC(C(F)(F)F)(C(F)(F)F)N=C(C(C(F)(F)F)C(F)(F)F)O1 (stereo not given) | 11.4 | 16.1 |  | 16 | 14.6 | 18 | 19.8 | 4.23 | 25.6 | 18 | 10.3 | 6.6 | > 100 | 6.98 | 10.5 | 11.2 | 14 | 4.78 | 32 | 19.5 |
| C[C@H]1[C@H](C)N(Cc2ccccc2)P(=O)(C(O)/C=C/c2ccccc2)N1Cc1ccccc1 (stereo not given in full) | 18.8 | 24.9 | > 25 | 10.7 | > 25 | > 25 | > 25 | 9.05 |  | 20.1 | 14.6 | 11.6 | 12.3 | 12.3 | 8.75 | > 25 | > 25 | > 25 | > 25 | 15.5 |
| CCOC(=O)NC(C(F)(F)F)(C(F)(F)F)P(=O)(OC(C)C)OC(C)C | > 100 | > 100 | > 100 | > 100 | > 100 | > 100 | > 100 |  | > 100 | > 100 | > 100 | > 100 | > 100 | > 100 | > 100 |  | > 100 | > 100 | > 100 | > 100 |
| Oc1ccccc1/C=N/Nc1nnc2c3ccccc3c3ccccc3c2n1 | > 100 | > 100 | > 100 | > 100 | > 100 | > 100 | > 100 | > 100 | > 100 | > 100 | 64.7 | > 100 | > 100 | > 100 | > 100 | > 100 | > 100 | > 100 | > 100 |  |
| COc1cc2c(cc1OC)-c1[nH]c3ccc(C#N)cc3c1CC(=O)N2 | > 24.7 | > 100 | > 100 | > 22.6 | > 100 | > 100 | > 100 | > 100 | > 100 | > 100 | > 100 |  | > 100 | > 100 | > 100 | > 100 | > 100 | > 100 | > 100 |  |
| CCOC(=O)c1nc2ccc(C(F)(F)F)cc2nc1NCc1ccc(Cl)c(Cl)c1 | > 100 | > 100 | > 100 | > 100 | > 100 | 52.1 | > 100 | > 100 |  | 69.9 | > 100 | > 100 | 80.7 | 90.9 |  | 57.5 | > 100 | > 100 | > 100 |  |
| NC(=O)c1cc2ccccc2oc1=Nc1ccccc1 | > 100 | > 100 | > 100 |  | > 100 | > 100 | > 100 | > 100 | > 100 |  | > 100 | > 100 | > 100 | > 100 | > 100 | > 100 | > 100 | > 100 | > 100 | > 100 |
| Clc1cccc(Cl)c1C=NC12CC3CC(CC(C3)C1)C2 | > 10 | > 10 | > 10 |  | > 10 | > 10 | > 10 | > 10 | > 10 | > 10 | > 10 | > 10 | > 10 | > 10 | > 10 | > 10 | > 10 | > 10 | > 10 | > 10 |
| CCOC(=O)/C(N=Nc1ccc(-n2c(C)nc3ccccc3c2=O)cc1)=C(/C)O | > 100 | > 100 | 51.8 | > 100 | > 100 | > 100 | > 100 | > 100 | > 100 | > 100 | > 100 | > 100 | 63.6 | > 100 | > 100 | > 100 | 37.4 | 64.1 | > 100 |  |
| CSc1nc2ccccc2c(=O)n1/N=C1\C(=O)N(CN2CCCCC2)c2ccc(Cl)cc21 | > 100 | > 100 | > 100 | > 100 | > 100 | > 100 | 94.7 | > 100 | 42.7 | > 100 | 54.2 | > 100 | > 100 | > 100 | > 100 | > 100 | > 100 | 39.9 | > 100 |  |
| CC1(C)C(=O)N(O)C(C)(C)N1O | > 10 | > 10 | > 10 |  | > 10 | > 10 | > 10 | > 10 | > 10 | > 10 | > 10 | > 10 | > 10 | > 10 | > 10 | > 10 | > 10 | > 10 | > 10 | > 10 |
| O=c1n(/N=C/c2ccccc2)c(=O)n2n1C1C=CC2CC1 | > 100 | > 100 | > 100 | > 100 | > 100 | > 100 | > 100 | > 100 | > 100 | > 100 | > 100 | > 100 | > 100 | > 100 | > 100 | > 100 | > 100 | > 100 | > 100 |  |
| Cc1occc1C(=S)Nc1ccc(Cl)c(C(=O)OCC(F)(F)F)c1 | > 100 | 64.2 | 40.1 | 39.1 | 51.4 |  | 51.2 | > 100 | 47.1 |  | 55.9 | 33.1 | > 100 | 33.7 | 41.4 | 82.6 | 44.4 | 55.8 | 43 | 35.1 |
| COc1cc(Br)c(OC)c2c(OC)cc(C)cc12 | > 100 |  | > 100 | > 100 | > 100 | > 100 | > 100 | > 100 | > 100 | > 100 | > 100 | > 100 | > 100 | > 100 | > 100 |  | > 100 | > 100 | > 100 | > 100 |
| CC1=C/C(=N\OCC(=O)O)CC(c2ccc(C(C)C)cc2)C1 (stereo not given) | > 100 | > 100 | 75.5 |  |  |  | > 100 | > 100 | > 100 | > 100 | > 100 | > 100 | > 100 | 37.6 | > 100 | > 100 | > 100 | 68.1 | > 100 |  |
| N#CC1(C#N)C2CCCCC23OC(=N)C1(C#N)C(c1ccco1)O3 (stereo not given) | 61.8 | 79.3 | > 100 | > 100 | 70.5 |  | > 100 | 41.6 | 90 | > 100 | 34.9 | 38.5 | 70.4 | > 100 | 29.2 | 24.5 | > 100 | > 100 | 54 | 31 |
| COC(=O)CNC(=O)C(C)NC(=O)C(CC(=O)OCc1ccccc1)NC(=O)OCc1ccccc1 (stereo not drawn) (Cbz-Asp(OBn)-Ala-Gly-OMe; configuration not given here) | > 100 |  | > 100 | 62.8 | > 100 | > 100 | > 100 | > 100 | > 100 | > 100 | > 100 | > 100 | > 100 | > 100 | > 100 | > 100 | > 100 | > 100 | > 100 | > 100 |
| Cc1c2cnccc2c(C)c2c1[nH]c1ccc(O)cc12 | > 10 | > 10 | 8.11 |  | 8.25 | 2.75 | > 10 | > 10 | 5.83 | 5.57 | > 10 | 2.2 | > 10 | > 10 | 7.35 | > 10 | 2.34 | > 10 | 5.34 | > 10 |
| C=C1C(=O)C([Si](C)(C)C)=C2C=C(C)C3(CC3)C12C (stereo not given) | > 100 | 42.2 | 44.2 | > 100 | > 100 | > 100 |  | > 100 | > 100 | > 100 | > 100 | > 100 | > 100 | 48.7 | > 100 | > 100 | > 100 | 11.9 | 70.4 | 70.2 |
| CCOC(=O)c1cc(Sc2ccc(N)c(C(=O)OCC)c2)ccc1N | > 100 | > 100 | > 100 |  | > 100 | 65.9 | > 100 | > 100 | > 100 | > 100 | > 100 | > 100 | > 100 | > 100 | 40.3 | > 100 | > 100 | > 100 | > 100 |  |
| COc1ccc(OC)c2sc(N3C(=O)/C(=C/Cc4ccco4)N=C3c3ccccc3)nc12 | > 100 | > 100 | > 100 | 80.8 |  | > 100 | > 100 | > 100 | > 100 | > 100 | > 100 | 98.9 | > 100 | > 100 | 80 | > 100 | > 100 | 70.9 | 35.7 | > 100 |
| O=C(O)c1c[nH]c2c(Sc3ccccc3)nccc2c1=O | > 100 | > 100 | > 100 | > 100 | > 100 | > 100 | > 100 | > 100 | > 100 | > 100 | > 100 | > 100 | > 100 | > 100 | > 100 | > 100 | > 100 | > 100 | > 100 |  |
| O=C1CC(=O)NC(=NN2C(=O)CSC2c2ccc(Cl)c(Cl)c2)N1 (stereo not given) | > 100 |  | > 100 | > 100 | > 100 | > 100 | > 100 | > 100 | > 100 | > 100 | > 100 | > 100 | > 100 | > 100 | > 100 | > 100 | > 100 | 54.3 | > 100 | > 100 |
| O=c1[nH]c(=O)n(C2OC(CO)C(O)C(F)C2O)cc1F (stereo not given) | > 100 |  | > 100 | > 100 | > 100 |  | > 100 | > 100 | > 100 | > 100 | > 100 | > 100 | > 100 | > 100 | > 100 | > 100 |  | 62 | > 100 | > 100 |
